Experimental data reported in the supplement of paper PMC8497498.

Key:
[1] = test system: Plasmodium falciparum 3D7 asexual blood stage; test: EC50 asexual blood stage growth; conditions: serum: 0.5% AlbuMAX
Method: (§1)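 The Reference Compound Library was tested by 10-point 3-fold dose response against P. cynomolgi Berok K4 asexual blood stages (SYBR proliferation assay, mefloquine background control). Culture medium contained 0.5% AlbuMAX or 20% M. fascicularis serum. P. falciparum 3D7 was tested in a 72-h SYBR Green assay with 0.5% AlbuMAX. Values are geometric mean EC50 over independent experiments; 10 uM is the top dose.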

[2] = test system: Plasmodium cynomolgi Berok K4 asexual blood stage; test: EC50 asexual blood stage growth
Method: as §1

[3] = serum: 20% M. fascicularis serum

Compound	EC50 asexual blood stage growth [1] [nM]	EC50 asexual blood stage growth ([2]; serum: 0.5% AlbuMAX) [nM]	EC50 asexual blood stage growth [2, 3] [nM]
CC1CCC2C(C)C(=O)OC3OC4(C)CCC1C32OO4 (configuration not stated) [Artemisinin]	94.8	7.3	9.4
CC1CCC2C(C)C(N3CCS(=O)(=O)CC3)OC3OC4(C)CCC1C32OO4 (configuration not stated) [Artemisone]	5	1	0.6
CC1CCC2C(C)C(O)OC3OC4(C)CCC1C32OO4 (configuration not stated) [Artenimol]	6.5	0.6	0.5
CC(C)(N)CNC(=O)CC1CCC2(CC1)OOC1(O2)C2CC3CC(C2)CC1C3 (configuration not stated) [Arterolane]	7.8	1.4	1
CC1CCC2C(C)C(OC(=O)CCC(=O)O)OC3OC4(C)CCC1C32OO4 (configuration not stated) [Artesunate]	41.3	6.2	3
O=C1C(O)=C([C@H]2CC[C@H](c3ccc(Cl)cc3)CC2)C(=O)c2ccccc21 [Atovaquone]	0.9	1	1.7
CCN(CC)CCCC(C)Nc1ccnc2cc(Cl)ccc12 (configuration not stated) [Chloroquine]	82.2	183	32.8
CC1Cc2c([nH]c3cc(Cl)c(F)cc23)C2(N1)C(=O)Nc1ccc(Cl)cc12 (configuration not stated) [Cipargamin]	1.4	3.3	15.4
CC1CCCC(CC2Cc3cc(O)cc(O)c3C(=O)O2)O1 (configuration not stated) [Cladosporin]	75.8	124	1430
CCC[C@@H]1C[C@@H](C(=O)N[C@@H]([C@H]2O[C@H](SC)[C@H](O)[C@@H](O)[C@H]2O)[C@H](C)Cl)N(C)C1 [Clindamycin]	> 10000	> 10000	9210
CC1CC(C)C(=O)C(C(O)CC2CC(=O)NC(=O)C2)C1 (configuration not stated) [Cyclohexamide]	282	35.2	40.1
Cc1cc(Nc2ccc(C(F)(F)F)nc2)n2nc(C(C)(F)F)nc2n1 [DSM421]	35.1	60.5	59.5
Nc1ccc(S(=O)(=O)c2ccc(N)cc2)cc1 [Dapsone]	> 10000	> 10000	> 10000
CC(=O)N(O)CCCCCNC(=O)CCC(=O)N(O)CCCCCNC(=O)CCC(=O)N(O)CCCCCN [Deferoxamine]	> 10000	> 10000	> 10000
CC12CCC3C(CC=C4CC(OS(=O)(=O)O)CCC43C)C1CCC2=O (configuration not stated) [Dehydroepiandrosterone sulphate]	> 10000	> 10000	> 10000
CC1CCC2C(C)C(O)OC3OC4(C)CCC1C32O4 (configuration not stated) [Deoxydihydroartemisinin]	> 10000	> 10000	> 10000
C[C@H]1c2cccc(O)c2C(=O)C2=C(O)[C@]3(O)C(=O)C(C(N)=O)=C(O)[C@@H](N(C)C)C3[C@@H](O)C21 (some centres not stated) [Doxycycline]	9930	9360	8350
CN(C)CC1=C(CNc2ccnc3cc(Cl)ccc23)C=[C-]C1.[C-]1=CC=CC1.[Fe+2] [Ferroquine]	11.5	43.3	36.2
O=CN(O)CCCP(=O)(O)O [Fosmidomycin]	> 10000	> 10000	6690
N=C(N)c1ccc(-c2ccc(-c3ccc(C(=N)N)cc3)o2)cc1 [Furamidine]	540	4670	864
CCCCN(CCCC)CCC(O)c1cc2c(Cl)cc(Cl)cc2c2cc(C(F)(F)F)ccc12 (configuration not stated) [Halofantrine]	3.7	0.5	0.5
CCN(CCO)CCCC(C)Nc1ccnc2cc(Cl)ccc12 (configuration not stated) [Hydroxychloroquine]	427	3370	209

Compound	EC50 asexual blood stage growth [1] [nM]	EC50 asexual blood stage growth ([2]; serum: 0.5% AlbuMAX) [nM]	EC50 asexual blood stage growth [2, 3] [nM]
CC1(C)c2nc(-c3ccc(F)cc3)c(Nc3ccc(F)cc3)n2CCN1C(=O)CN [KAF-156]	24.4	3.6	36.6
CCCCN(CCCC)CC(O)c1cc(Cl)cc2c1-c1ccc(Cl)cc1C2=Cc1ccc(Cl)cc1 (configuration not stated) [Lumefantrine]	30.5	23.3	105
CC(C)(C)c1cc(O)c(CN)c(C(C)(C)C)c1.Cl [MK-4815]	574	49.4	93.8
CS(=O)(=O)c1ccc(-c2cnc(N)c(-c3ccc(C(F)(F)F)nc3)c2)cc1 [MMV048]	127	59.8	49
CN(Cc1cnc2nc(N)nc(N)c2n1)c1ccc(C(=O)N[C@@H](CCC(=O)O)C(=O)O)cc1 [Methotrexate]	138	232	168
CN(C)c1ccc2nc3ccc(=[N+](C)C)cc-3sc2c1 [Methylene blue]	17.8	5.4	6
CC(=O)N[C@@H](C(=O)O)C(C)(C)S [N-acetyl-D-penicillamine]	> 10000	7560	> 10000
CC(C)(C)NCc1cc(Nc2ccnc3cc(Cl)ccc23)c2c(c1O)CCCC2 [Naphthoquine]	8.7	23.2	68.3
CONC(=N)c1ccc(-c2ccc(-c3ccc(C(=N)NOC)cc3)o2)cc1 [Pafuramidine]	> 10000	> 10000	> 10000
N=C(N)c1ccc(OCCCCCOc2ccc(C(=N)N)cc2)cc1 [Pentamidine]	139	212	389
CN(C)Cc1ccccc1CNc1ccnc2cc(Cl)ccc12 [Phenylequine]	7.4	36.6	40.7
Clc1ccc2c(N3CCN(CCCN4CCN(c5ccnc6cc(Cl)ccc56)CC4)CC3)ccnc2c1 [Piperaquine]	299	68.2	35.3
COc1cc(NC(C)CCCN)c2ncccc2c1 (configuration not stated) [Primaquine]	5750	3100	9000
CC(C)N=C(N)N=C(N)Nc1ccc(Cl)cc1 [Proguanil]	2740	> 10000	> 10000
CCc1nc(N)nc(N)c1-c1ccc(Cl)cc1 [Pyrimethamine]	36.6	21.8	7.2
C=CC1CN2CCC1CC2C(O)c1ccnc2ccc(OC)cc12 (configuration not stated) [Quinidine]	73.9	30.8	18.5
C=C[C@H]1C[N@@]2CC[C@H]1C[C@H]2[C@H](O)c1ccnc2ccc(OC)cc12 [Quinine]	184	127	174
Cc1cc2nc3c(=O)[nH]c(=O)nc-3n(CC(O)C(O)C(O)CO)c2cc1C (configuration not stated) [Riboflavin]	> 10000	> 10000	> 10000
CCN(CC)CCCCCCNc1cc(OC)cc2c(C)ccnc12 [Sitamaquine]	730	773	1050
Nc1ccc(S(=O)(=O)Nc2ncccn2)cc1 [Sulfadiazine]	> 10000	> 10000	8320
COc1cc(C)c2c(Oc3cccc(C(F)(F)F)c3)c(OC)cc(NC(C)CCCN)c2n1 (configuration not stated) [Tafenoquine]	5940	5290	> 10000
COc1cc(Cc2cnc(N)nc2N)cc(OC)c1OC [Trimethoprim]	5280	794	496
